tested on: LLC1 cells; test: Coculture of liposome-treated LLC1 cells with lymphocytes from H250-vaccinated C57BL/6 mice, IFNγ secretion; format: cell-based, mouse; details: LLC1 cells treated with H1299.3-targeted liposomes containing H250 in presence of inhibitor, fixed, cocultured with lymphocytes
Experimental: We then generated murine CD8+ cells with TCR that recognizes MHC class I loaded H250 (1) by vaccinating C57BL/6 mice with an extended version of H250 and subsequently harvesting lymphocytes as a source of CD8+ T cells. LLC1 cells were treated with control or H1299.3-targeted liposomes containing H250, washed, and then incubated.
After allowing trafficking of the peptides to occur, the LLC1 cells were fixed and cocultured with lymphocytes as previously described.

SMILES	Effect of inhibitor on IFNγ secretion / H250 presentation
CCN(CC)CCCC(C)Nc1ccnc2cc(Cl)ccc12 (stereo not drawn) [chloroquine]	significant reduction in IFNγ secretion
CN(C)CCCN1c2ccccc2Sc2ccc(Cl)cc21 [Chlorpromazine]	reduced presentation
C[C@@H]1[C@H](O)[C@@H](C)/C=C/C=C/CC/C=C/C=C/C=C/C=C/C(O[C@H]2O[C@H](C)[C@@H](O)[C@H](N)[C@@H]2O)CC2O[C@](O)(CC(O)C(O)CCC(O)CC(O)CC(O)CC(=O)O[C@H]1C)CC(O)C2C(=O)O (stereo partly drawn) [Nystatin]	no effect

From patent US10925960B2, “Antigen delivery system” (SRI INTERNATIONAL, priority 2014, dated 2021)
